Patent publication US6413947B1, “Anilide derivative, production and use thereof” (Takeda Chemical Industries, Ltd., priority 1997, dated 2002)

Compound | melting point
Cc1ccc(-c2ccc3c(c2)C=C(C(=O)Nc2ccc(Cc4cccc[n+]4[O-])cc2)CO3)cc1 [Compound 200, N-[4—(1-oxidopyridin-2-ylmethyl)phenyl]-6—(4-methylphenyl)-2H-1-benzopyran-3-carboxamide] | 261 to 263 °C
Cc1ccc(-c2ccc3c(c2)C=C(C(=O)Nc2ccc(C(O)c4ccccn4)cc2)C(C)O3)cc1 (stereo not drawn) [Compound 202, N-[4-[hydroxy(2-pyridyl)methyl]-phenyl]-6—(4-methylphenyl)-2-methyl-2H-1-benzopyran-3-carboxamide] | 202 to 205 °C
Cc1ccc(-c2ccc3c(c2)C=C(C(=O)Nc2ccc(C(O)c4cccc[n+]4[O-])cc2)C(C)O3)cc1 (stereo not drawn) [Compound 203, N-[4-[hydroxy(1-oxidopyridin-2-yl)-methyl]phenyl]-6—(4-methylphenyl)-2-methyl-2H-1-benzopyran-3-carboxamide] | 230 to 232 °C
Cc1ccc(-c2csc(/C=C/C(=O)Nc3ccc(CN(C)C4CCOCC4)cc3)c2)cc1 [Compound 212, (E)-N-[4-[N-methyl-N-(tetrahydropyran-4-yl)aminomethyl]-phenyl)-3-[4—(4-methylphenyl)thiophen-2-yl]acrylamide] | 188 to 190 °C
Cc1ccc(-c2cc3c(s2)CCCC(C(=O)Nc2ccc(CN(C)C4CCOCC4)cc2)=C3)cc1 [Compound 214, N-[4-[N-methyl-N-(tetrahydropyran-4-yl)aminomethyl]-phenyl]-2—(4-methylphenyl)-7,8-dihydro-6H-cyclohepta-[b]thiophene-5-carboxamide] | 201 to 203 °C
Cc1ccc(-c2ccc3nc(C)c(C(=O)Nc4ccc(CN(C)C5CCOCC5)cc4)cc3c2)cc1 [Compound 216, N-[4-[N-methyl-N-(tetrahydropyran-4-yl)aminomethyl]phenyl]-6—(4-methylphenyl)-2-methylquinoline-3-carboxamide] | 157 to 160 °C
O=C(Nc1cccc(CN2CCCCC2)c1)C1=Cc2cc(-c3ccccc3)ccc2CC1 [Compound 217, 7-phenyl-N-[3—(piperidinomethyl)phenyl]-3,4-dihydronaphthalene-2-carboxamide] | 152 to 153 °C
CSc1ccc(-c2ccc3c(c2)C=C(C(=O)Nc2ccc(CN(C)C4CCOCC4)cc2)CCO3)cc1 [Compound 226, N-[4-[N-methyl-N-(tetrahydropyran-4-yl)aminomethyl]-phenyl]-7—(4-methylthiophenyl)-2,3-dihydro-1-benzoxepine-4-carboxamide] | 180 to 186 °C
Cc1ccc(-c2ccc3c(c2)C=C(C(=O)Nc2ccc(C[N+](C)(C)CCCO)cc2)CCO3)cc1.[I-] [Compound 240, dimethyl-3-hydroxypropyl-(N-(7-(4-methylphenyl)-2,3-dihydro-1-benzoxepin-4-carbonyl)-4-aminobenzyl)ammonium iodide] | 216 to 219 °C
Cc1ccc(-c2ccc3c(c2)C=C(C(=O)Nc2ccc(C[N+](C)(C)C4CCOCC4)cc2)CCS3)cc1.[I-] [Compound 241, dimethyl-(N-(7-(4-methylphenyl)-2,3-dihydro-1-benzothiepine-4-carbonyl)-4-aminobenzyl)-N-(4-tetrahydropyranyl)ammonium iodide] | 220 to 222 °C (dec.)
Cc1ccc(-c2ccc3c(c2)C=C(C(=O)Nc2ccc(CP4(=O)CCCCC4)cc2)CCC3)cc1 [Compound 252, 2-(4-methylphenyl)-N-(4-((1-oxophosphorinane-1-yl)methyl)phenyl)-6,7-dihydro-5H-benzocycloheptene-8-carboxamide] | 282 to 283 °C (dec.)
CN(Cc1ccc(NC(=O)C2=Cc3cc(-c4ccc(S(C)(=O)=O)cc4)ccc3OCC2)cc1)C1CCOCC1 [Compound 273, 7-(4-methylsulfonylphenyl)-N-[4-[N-methyl-N-(tetra-hydropyran-4-yl)aminomethyl]phenyl]-2,3-dihydro-1-benzoxepine-4-carboxamide] | 233 to 235 °C
CC(C)c1ccc(-c2ccc(/C=C/C(=O)Nc3ccc(CN(C)C4CCOCC4)cc3)s2)cc1 [Compound 274, (E)-3-[5-(4-isopropylphenyl)thiophen-2-yl]-N-[4-[N-methyl-N-(tetrahydropyran-4-yl)aminomethyl]-phenyl]acrylamide] | 187 to 189 °C
CN(Cc1ccc(NC(=O)/C=C/c2ccc(-c3ccc(C(C)(C)C)cc3)s2)cc1)C1CCOCC1 [Compound 276, (E)-3-[5-(4-tert-butylphenyl)thiophen-2-yl]-N-[4-[N-methyl-N-(tetrahydropyran-4-yl)aminomethyl]phenyl]acrylamide] | 216 to 220 °C
Cc1ccc(-c2cc3ccc(C(=O)Nc4ccc(CN(C)C5CCOCC5)cc4)cc3o2)cc1 [Compound 278, 2-(4-methylphenyl)-N-[4-[N-methyl-N-(tetrahydropyran-4-yl)aminomethyl]phenyl]benzofuran-6-carboxamide] | 224 to 227 °C
COc1ccc(-c2ccc3c(c2)C=C(C(=O)Nc2ccc(CN(C)C4CCOCC4)cc2)CCS3)cc1 [Compound 282, 7-(4-methoxyphenyl)-N-[4-[N-methyl-N-(tetrahydropyran-4-yl)aminomethyl]phenyl]-2,3-dihydro-1-benzothiepine-4-carboxamide] | 162 to 164 °C
COc1ccc(-c2ccc3c(c2)C=C(C(=O)Nc2ccc(CN(C)C4CCC5(CC4)OCCO5)cc2)CCS3)cc1 [Compound 283, N-[4-[N-(4,4-ethylenedioxy-cyclohexyl)-N-methylaminomethyl]phenyl]-7-(4-methoxy-phenyl)-2,3-dihydro-1-benzothiepine-4-carboxamide] | 198 to 201 °C
COc1ccc(-c2ccc3c(c2)C=C(C(=O)Nc2ccc(CN(C)C4CCC(=O)CC4)cc2)CCS3)cc1 [Compound 284, 7-(4-methoxyphenyl)-N-[4-[N-methyl-N-(4-oxocyclohexyl)aminomethyl]phenyl]-2,3-dihydro-1-benzothiepine-4-carboxamide] | 133 to 139 °C
CN(Cc1ccc(NC(=O)C2=Cc3cc(-c4ccc(N5CCOCC5)cc4)ccc3SCC2)cc1)C1CCOCC1 [Compound 285, N-[4-[N-methyl-N-(tetrahydropyran-4-yl)aminomethyl]phenyl]-7-(4-morpholinophenyl)-2,3-dihydro-1-benzothiepine-4-carboxamide] | 255 to 259 °C
CN(Cc1ccc(NC(=O)C2=Cc3cc(-c4ccc5c(c4)OCO5)ccc3SCC2)cc1)C1CCOCC1 [Compound 286, 7-(3,4-methylenedioxyphenyl)-N-[4-[N-methyl-N-(tetrahydropyran-4-yl)aminomethyl]phenyl]-2,3-dihydro-1-benzothiepine-4-carboxamide] | 193 to 194 °C
CCOc1ccc(-c2ccc3c(c2)C=C(C(=O)Nc2ccc(CN(C)C4CCC5(CC4)OCCO5)cc2)CCO3)cc1 [Compound 287, 7-(4-ethoxyphenyl)-N-[4-[N-(4,4-ethylenedioxycyclohexyl)-N-methylaminomethyl]-phenyl]-2,3-dihydro-1-benzoxepine-4-carboxamide] | 172 to 174 °C

Other lines, results leading:

melting point | Compound
175 to 176 °C | Cc1ccc(S(=O)(=O)N2CCC(c3cccc4c3CCCC(C(=O)Nc3ccc(CN(C)C5CCOCC5)cc3)=C4)CC2)cc1 [Compound 289, 4-[1-(4-methylphenylsulfonyl)piperidin-4-yl]-N-(4-(N-methyl-N-(tetrahydropyran-4-yl)aminomethyl]phenyl]-6,7-dihydro-5H-benzocycloheptene-8-carboxamide]
129 to 130 °C | Cc1ccc(-c2ccc3c(c2)C=C(C(=O)Nc2ccc(CN(C)C4CCOCC4)cc2)CCO3)s1 [Compound 290, N-[4-[N-methyl-N-(tetrahydropyran-4-yl)amino-methyl]phenyl]-7-(5-methyl-2-thienyl)-2,3-dihydro-1-benzoxepine-4-carboxamide]
194 to 195 °C | CN(Cc1ccc(NC(=O)C2=Cc3cc(-c4ccsc4)ccc3OCC2)cc1)C1CCOCC1 [Compound 291, N-[4-[N-methyl-N-(tetrahydropyran-4-yl)aminomethyl]phenyl]-7-(3-thienyl)-2,3-dihydro-1-benzoxepine-4-carboxamide]
147 to 148 °C | Cc1csc(-c2ccc3c(c2)C=C(C(=O)Nc2ccc(CN(C)C4CCOCC4)cc2)CCO3)c1 [Compound 292, N-[4-[N-methyl-N-(tetra-hydropyran-4-yl)aminomethyl]phenyl]-7-(4-methyl-2-thienyl)-2,3-dihydro-1-benzoxepine-4-carboxamide]
187.5 to 188.5 °C | CN1CCC(C(=O)Nc2ccc(CN(C)C3CCOCC3)cc2)=Cc2cc(-c3ccc(C(F)(F)F)cc3)ccc21 [Compound 308, 1-methyl-N-[4-[[N-methyl-N-(tetrahydropyran-4-yl)amino]-methyl]phenyl]-7-(4-trifluoromethylphenyl)-2,3-dihydro-1-benzoazepine-4-carboxamide]
110 to 112 °C | COCCN(CCOC)Cc1ccc(NC(=O)C2=Cc3cc(-c4ccc(C)cc4)ccc3OCC2)cc1 [Compound 311, N-(4-((N,N-bis(2-methoxyethyl)amino)methyl)phenyl)-7-(4-methylphenyl)-2,3-dihydro-1-benzoxepine-4-carboxamide]
119 to 122 °C | CCOCCCN(C)Cc1ccc(NC(=O)C2=Cc3cc(-c4ccc(C)cc4)ccc3OCC2)cc1 [Compound 312, N-(4-((N-(3-ethoxypropyl)-N-methylamino)methyl)phenyl)-7-(4-methylphenyl)-2,3-dihydro-1-benzoxepine-4-carboxamide]
128 to 132 °C | COCC(COC)N(C)Cc1ccc(NC(=O)C2=Cc3cc(-c4ccc(C)cc4)ccc3OCC2)cc1 [Compound 313, N-(4-((N-(1,3-dimethoxypropan-2-yl)-N-methylamino)methyl)phenyl)-7-(4-methylphenyl)-2,3-dihydro-1-benzoxepine-4-carboxamide]
121 to 122 °C | COCCN(C)Cc1ccc(NC(=O)C2=Cc3cc(-c4ccc(C)cc4)ccc3OCC2)cc1 [Compound 314, N-(4-((N-(2-methoxyethyl)-N-methylamino)methyl)phenyl)-7-(4-methylphenyl)-2,3-dihydro-1-benzoxepine-4-carboxamide]
